# Patent publication US20250109127A1, “METHODS OF USE OF PHENOXYPROPYLAMINE COMPOUNDS TO TREAT DEPRESSION” (Minerva Neurosciences, Inc., priority 2013, published 2025)
# Structures can show the parent of a compound that is named as a salt.
# Test system: DOPAC release in the rat prefrontal cortex
# Experiment: Microdialysis: DOPAC release in prefrontal cortex after I.P. administration
# Assay type: in vivo
# Settings: for DOPAC release, MEAN: 3 mg/kg IP; for DOPAC release, MEAN / DOPAC (% of respective basal) MEAN: n = 8
# Protocol: The aim of the study was to evaluate, using microdialysis, the effects of an intraperitoneal (I.P.) administration in rats of three different doses of SON-117 on dopamine and its metabolites, serotonin and its metabolite (5-HIAA), and norepinephrine levels in prefrontal cortex.
# Thirty-two adult male Wistar rats were used for the whole study (4 groups of eight animals planned for the study, Table 1).
# Surgery was performed on rats weighing about 300 g at the beginning of the experiments. Rats were anaesthetized with Ketamine (50 mg/kg) & Xylazine (15 mg/kg) by intramuscular administration. The animals were placed in a stereotaxic apparatus in the flat-skull position at a constant setting of −3.3 mm between ear bars and the incisor bar. The animals were treated with a local anesthesic (xylocaine 1%, Astra Zeneca) and an analgesic (Temgesic, from Schering Plough, 0.05 mg/kg, s.c.). A rostrocaudal midline incision was made with a lancet to expose the dorsal skull surface. The “stereotaxic zero” was defined by the Bregma in accordance with Paxinos and Watson's atlas (1986). A hole was drilled in the skull with a drill and the meninges were pierced with a sterile needle to implant a CMA12 guide cannula which later received the dialysis probe.
# Coordinates used for implanting guide cannula in prefrontal cortex from Bregma were anteroposterior 3.7 mm, mediolateral 0.8 mm, and dorsoventral −2 mm (top of the probe was at −5 mm). The guide cannula was fixed to the skull with two stainless steel screws (1.88 mm outside diameter) anchored. An application of dental cement was added. A plastic collar allowed each animal to be tethered to a Swivel assembly of the CMA 120 awake animal system. Following surgery, rats were kept in individual cages and allowed to recover for a minimum of 3-5 days before the experimentation. The rats were handled and put in plastic bowl for 10 min at least every day to habituate the animals to their new environment for the dialysis. An I.P. administration with saline was also performed every day.
# Dialysis probes (CMA12/3 mm, membrane, 20 kD cut-off, Carnegie Medicine, Stockholm, Sweden), were carefully washed before inserting into the guide cannula. The wash was performed with the artificial cerebrospinal fluid (aCSF) medium (NaCl 147 mM, KCl 2.7 mM, CaCl2 1.2 mM, MgCl2 0.85 mM) at room temperature. The dialysis system was then equilibrated at 20° C. at a perfusion rate of 1 μl/min with a Carnegie pump (CMA100). All catheters (FEP tubing, internal volume of 1.2 μl/10 cm, and tubing adaptors) used for microdialysis were treated in the same conditions.
# The probes duly prepared were inserted into the guide cannula and the CMA120 Swivel assembly secured to the animal using a plastic collar. Flow through the dialysis probe with aCSF was maintained at a rate of 1 μl/min during the whole experimentation. The first four fractions (corresponding to 2 hours) were discarded to avoid the effects of parenchymal disturbance and to ensure that an approximate steady-state level was reached. Fractions were then collected over a period of 8.5 h during which time the animals remained quiet. The dialysates were automatically collected with an autosampler (microfraction collector CMA 140, Carnegie Medicin) and stored at −80° C. until analysis. […] Perfusion was then maintained for 7 hours with aCSF. The dialysates (30 μl) were collected into 300 μl vials, transferred into dry ice and then kept frozen (−80° C.) until analysis. Frozen samples were shipped to a partner for analysis. At the end of the microdialysis study, a PBS with colored ink was perfused through the probe in order to visualize the dialyzed area.
# Catecholamine assay: Concentrations of dopamine, DOPAC, HVA, 5-HIAA, 5-HT, and norepinephrin were determined for each sample by HPLC coupled with electrochemical detection.
smiles,measurement,setting,value
"Cc1nnc(-c2cc3c(OC[C@@H](O)CN4CCC(c5ccc(Cl)c(Cl)c5)CC4)cccc3o2)o1 [SON-117, (S)-1-(4-(3,4-dichlorophenyl)piperidino)-3-(2-(5-methyl-1,3,4-oxadiazol-2-yl)benzo(b)furan-4-yloxy)-2-propanol hydrochloride]","DOPAC release, MEAN",T-1 h 30-T-1 h (before administration),101.39 % of respective basal
same,"DOPAC release, MEAN",T-1 h-T-30 min (before administration),103.75 % of respective basal
same,"DOPAC levels, change (not statistically significant)","SON-117 0.1 mg/kg I.P., from 1.5 h to 2.5 h and from 4.5 h to 7 h",tended to induce a slight increase
same,"release of DOPAC, trend","SON-117 0.1 mg/kg, at 2 h and from 4.5 h to 7 h",trend for an increased release
same,DOPAC dialysate levels vs mean pre-administration value,SON-117 0.3 mg/kg IP,no statistically significant differences
same,DOPAC dialysate levels vs mean pre-administration value,SON-117 3 mg/kg IP,no statistically significant differences
same,"DOPAC, difference to the citalopram group (two-way ANOVA)","SON-117 at the three doses tested, in function of time",no significant differences
same,DOPAC (% of respective basal) MEAN,"SON-117 group 0.1 mg/kg I.P., T0-T30 min",81.81 % of respective basal
same,DOPAC (% of respective basal) MEAN,"SON-117 group 0.1 mg/kg I.P., T30-T1 h",104.52 % of respective basal
same,DOPAC (% of respective basal) MEAN,"SON-117 group 0.1 mg/kg I.P., T1 h 30-T2 h",144.57 % of respective basal
same,DOPAC (% of respective basal) MEAN,"SON-117 group 0.1 mg/kg I.P., T1 h-T1 h 30",112.3 % of respective basal
same,DOPAC (% of respective basal) MEAN,"SON-117 group 0.1 mg/kg I.P., T2 h 30-T3 h",94.20 % of respective basal
same,DOPAC (% of respective basal) MEAN,"SON-117 group 0.1 mg/kg I.P., T2 h-T2 h 30",102.15 % of respective basal
same,DOPAC (% of respective basal) MEAN,"SON-117 group 0.1 mg/kg I.P., T3 h 30-T4 h",96.09 % of respective basal
same,DOPAC (% of respective basal) MEAN,"SON-117 group 0.1 mg/kg I.P., T3 h-T3 h 30",90.94 % of respective basal
same,DOPAC (% of respective basal) MEAN,"SON-117 group 0.1 mg/kg I.P., T4 h 30-T5 h",120.32 % of respective basal
same,DOPAC (% of respective basal) MEAN,"SON-117 group 0.1 mg/kg I.P., T4 h-T4 h 30",142.52 % of respective basal
same,DOPAC (% of respective basal) MEAN,"SON-117 group 0.1 mg/kg I.P., T5 h 30-T6 h",122.76 % of respective basal
same,DOPAC (% of respective basal) MEAN,"SON-117 group 0.1 mg/kg I.P., T5 h-T5 h 30",129.53 % of respective basal
same,DOPAC (% of respective basal) MEAN,"SON-117 group 0.1 mg/kg I.P., T6 h 30-T7 h",137.94 % of respective basal
same,DOPAC (% of respective basal) MEAN,"SON-117 group 0.1 mg/kg I.P., T6 h-T6 h 30",127.81 % of respective basal
same,DOPAC (% of respective basal) MEAN,"SON-117 group 0.1 mg/kg I.P., T-30 min-T0 (before administration)",90.82 % of respective basal
same,DOPAC (% of respective basal) MEAN,"SON-117 group 0.1 mg/kg I.P., T-1 h 30-T-1 h (before administration)",109.18 % of respective basal
same,DOPAC (% of respective basal) MEAN,"SON-117 group 0.1 mg/kg I.P., T-1 h-T-30 min (before administration)",100.52 % of respective basal
same,DOPAC (% of respective basal) MEAN,"SON-117 group 0.3 mg/kg I.P., T0-T30 min",86.10 % of respective basal
same,DOPAC (% of respective basal) MEAN,"SON-117 group 0.3 mg/kg I.P., T30-T1 h",84.32 % of respective basal
same,DOPAC (% of respective basal) MEAN,"SON-117 group 0.3 mg/kg I.P., T1 h 30-T2 h",102.17 % of respective basal
same,DOPAC (% of respective basal) MEAN,"SON-117 group 0.3 mg/kg I.P., T1 h-T1 h 30",93.91 % of respective basal
same,DOPAC (% of respective basal) MEAN,"SON-117 group 0.3 mg/kg I.P., T2 h 30-T3 h",83.76 % of respective basal
same,DOPAC (% of respective basal) MEAN,"SON-117 group 0.3 mg/kg I.P., T2 h-T2 h 30",81.99 % of respective basal
same,DOPAC (% of respective basal) MEAN,"SON-117 group 0.3 mg/kg I.P., T3 h 30-T4 h",94.46 % of respective basal
same,DOPAC (% of respective basal) MEAN,"SON-117 group 0.3 mg/kg I.P., T3 h-T3 h 30",83.66 % of respective basal
same,DOPAC (% of respective basal) MEAN,"SON-117 group 0.3 mg/kg I.P., T4 h 30-T5 h",107.30 % of respective basal
same,DOPAC (% of respective basal) MEAN,"SON-117 group 0.3 mg/kg I.P., T4 h-T4 h 30",94.25 % of respective basal
same,DOPAC (% of respective basal) MEAN,"SON-117 group 0.3 mg/kg I.P., T5 h 30-T6 h",88.68 % of respective basal
same,DOPAC (% of respective basal) MEAN,"SON-117 group 0.3 mg/kg I.P., T5 h-T5 h 30",79.90 % of respective basal
same,DOPAC (% of respective basal) MEAN,"SON-117 group 0.3 mg/kg I.P., T6 h 30-T7 h",96.87 % of respective basal
same,DOPAC (% of respective basal) MEAN,"SON-117 group 0.3 mg/kg I.P., T6 h-T6 h 30",97.32 % of respective basal
same,DOPAC (% of respective basal) MEAN,"SON-117 group 0.3 mg/kg I.P., T-30 min-T0 (before administration)",92.84 % of respective basal
same,DOPAC (% of respective basal) MEAN,"SON-117 group 0.3 mg/kg I.P., T-1 h 30-T-1 h (before administration)",104.24 % of respective basal
same,DOPAC (% of respective basal) MEAN,"SON-117 group 0.3 mg/kg I.P., T-1 h-T-30 min (before administration)",102.91 % of respective basal
